Source: EP4763847A1 (Jiangsu Yahong Meditech Co., Ltd., priority 2023, dated 2025)
Where two headings read alike, the source gives them in different places.

Columns and labels:
PRMT5-MTA [1] = biological target: T1, PRMT5-MTA (Homo sapiens, UniProt O14744); settings: PRMT5+MTA enzyme activity inhibition; PRMT5/MET50 protein 1 nM, 5'-deoxy-5'-adenosine 1 µM, SAM 2.5 µM, Histone H4 substrate 5 nM
Experimental: (§3) The enzymatic inhibition activity of the compounds against PRMT5-MTA was detected using the AlphaScreen method. A 1× methyltransferase assay buffer IV (Signalchem) was prepared as a dilution solution for each component of the enzymatic reaction. […] The test compounds were added to all wells except the control wells in a 3-fold dilution series of 10 concentration points starting from 1000 nM using a Tecan D300e. After centrifugation at 1000 rpm for 1 minute in a centrifuge, the plate was incubated at 23°C for 15 minutes. Histone H4 substrate at a final concentration of 5 nM was added to the plate at 4 µL per well. After centrifugation at 1000 rpm for 1 minute in a centrifuge, the plate was reacted in an incubator at 23°C for 45 minutes. Anti-Histone H4 (symmetric dimethyl R3) antibody (Abcam) was pre-incubated with 50 µg/mL AlphaScreen Protein A Acceptor beads (PerkinElmer) at room temperature for 10 minutes, and then added to the plate in a volume of 10 µL per well, followed by reaction at room temperature for 1 hour. 10 µL of 50 µg/mL AlphaScreen Streptavidin Donor beads (PerkinElmer) were added to each well, and reacted at room temperature for 1 hour. The signal values in the plate were detected using the Alpha method on an Envision multi-mode plate reader. The IC50 values of the compounds for PRMT5/MET50 enzyme activity inhibition were calculated in Xlfit 5.0 software.

HCT116-WT = assay: Cell proliferation inhibition (CellTiter Glo), HCT116-WT cells; type: cell-based; settings: cultured 6 days with compound
Experimental: (§1) Test Example 2: Test of cell proliferation inhibition activity of the compounds
(§2) HCT116-WT (ATCC, CCL-247) and HCT116 MTAP KO (Cobioer Nanjing, CBP75002) cells were seeded into white low-transparency 96-well sterile cell culture plates at a density of 250 cells per well, respectively. The culture medium was McCoy's 5A Medium + 10% FBS. The plates were incubated overnight at 37°C with 5% CO2. The cells were treated with compounds gradiently with an initial concentration of 10000 nM, 4-fold dilution, and 8 concentration points. The last two columns were control wells with only DMSO added. The treated cells were continued to be cultured for 6 days. On the seventh day, 50 µL of CellTiter Glo® reagent was added to each well. After reacting on a shaker at room temperature for 10 minutes, the chemiluminescence signal in the plate was detected using the chemiluminescence detection method on a BIOTEK H1 multi-mode plate reader. […] Table 2: IC50 values of compounds for HCT116 MTAP KO/WT cell growth inhibition

HCT116 MTAP KO = assay: Cell proliferation inhibition (CellTiter Glo), HCT116 MTAP KO cells; type: cell-based; settings: cultured 6 days with compound
Experimental: as §1, §2

PRMT5-MTA [2] = biological target: T1, PRMT5-MTA; assay: biochemical; settings: IC50 (nM), PRMT5+MTA enzyme activity inhibition; PRMT5/MET50 protein 1 nM, 5'-deoxy-5'-adenosine 1 µM, SAM 2.5 µM, Histone H4 substrate 5 nM
Experimental: as §3

T1 sequence (O14744 whole entry): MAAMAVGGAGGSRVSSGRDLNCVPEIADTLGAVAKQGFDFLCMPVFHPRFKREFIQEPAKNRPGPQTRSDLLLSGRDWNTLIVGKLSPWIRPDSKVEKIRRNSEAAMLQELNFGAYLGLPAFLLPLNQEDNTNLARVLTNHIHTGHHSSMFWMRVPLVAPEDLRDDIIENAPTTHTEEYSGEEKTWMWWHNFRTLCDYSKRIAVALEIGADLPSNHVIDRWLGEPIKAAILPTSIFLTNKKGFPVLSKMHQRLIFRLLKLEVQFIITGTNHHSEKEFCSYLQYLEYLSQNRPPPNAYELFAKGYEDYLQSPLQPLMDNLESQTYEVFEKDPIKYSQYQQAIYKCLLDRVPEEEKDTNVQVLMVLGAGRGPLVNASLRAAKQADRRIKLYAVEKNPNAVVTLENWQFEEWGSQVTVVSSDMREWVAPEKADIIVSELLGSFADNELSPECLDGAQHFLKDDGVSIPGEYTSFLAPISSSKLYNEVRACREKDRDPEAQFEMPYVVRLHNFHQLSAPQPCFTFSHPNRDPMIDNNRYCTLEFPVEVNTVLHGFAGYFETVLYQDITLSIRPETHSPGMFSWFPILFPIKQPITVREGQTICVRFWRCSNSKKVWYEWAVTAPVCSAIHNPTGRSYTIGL
T1 sequence (Q9BQA1 whole entry partner): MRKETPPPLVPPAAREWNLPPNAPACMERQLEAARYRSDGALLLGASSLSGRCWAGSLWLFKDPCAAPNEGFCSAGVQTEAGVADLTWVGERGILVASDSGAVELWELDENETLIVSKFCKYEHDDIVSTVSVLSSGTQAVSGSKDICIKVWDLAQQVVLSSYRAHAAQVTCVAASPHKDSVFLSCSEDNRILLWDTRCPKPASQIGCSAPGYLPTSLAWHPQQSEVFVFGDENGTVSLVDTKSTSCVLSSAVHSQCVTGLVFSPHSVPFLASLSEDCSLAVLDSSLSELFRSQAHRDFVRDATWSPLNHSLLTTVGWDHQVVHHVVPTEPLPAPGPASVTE

Molecule	IC50 (PRMT5-MTA [1])	IC50 (HCT116-WT)	IC50 (HCT116 MTAP KO)	IC50 (HCT116-WT; 144 h)	IC50 (PRMT5-MTA [2])	IC50 (HCT116 MTAP KO; Homo sapiens, HCT-116, 144 h)
6-((isobutyrylamido(methylamino)methylene)amino)-N-(1-(pyrimidin-2-yl)ethyl)-N-((5 -(trifluoromethyl)pyridin-2-yl)methyl)nicotinamide [Compound 29]	8.2 nM	3730 nM	590 nM			
NC(=Nc1ccc(C(=O)N(Cc2ccc(C(F)(F)F)cn2)C2CCCc3cccnc32)cn1)NO (stereo not drawn) [Compound 117]				115 nM	5.7 nM	21 nM
CNC(N)=Nc1ccc(C(=O)N(Cc2ccc(-c3cnn(C)c3)cn2)[C@H](C)c2ccccc2F)cn1 [Compound 129]				2520 nM	5.4 nM	233 nM
CNC(N)=Nc1ccc(C(=O)N(Cc2ccc(F)c(C)c2)[C@H](C)c2ccccc2F)cn1 [Compound 101]				1790 nM	3.1 nM	352 nM
CN/C(N)=N\c1ccc(C(=O)N(Cc2ccc(OC(F)(F)F)cn2)[C@H](C)c2ccccc2F)cn1 [Compound 77, (R,Z)-6-((amino(methylamino)methylene)amino)-N-(1-(2-fluorophenyl)ethyl)-N-((5-(trifluoromethoxy)pyridin-2-yl)methyl)nicotinamide]				330 nM	4 nM	28 nM
CN/C(N)=N\c1ccc(C(=O)N(Cc2ccc(C(F)(F)F)cn2)C2CCc3cccnc32)cn1 (stereo not drawn) [Compound 92, (Z)-6-((amino(methylamino)methylene)amino)-N-(6,7-dihydro-5H-cyclopenta[b]pyridin-7-yl)-N-((5-(trifluoromethyl)pyridin-2-yl)methyl)nicotinamide]				1480 nM	1.6 nM	134 nM
CNC(N)=Nc1ccc(C(=O)N(Cc2ccc3cnccc3c2)[C@H](C)c2ccccc2F)cn1 [Compound 98]				1090 nM	8.7 nM	64 nM
CNC(N)=Nc1ccc(C(=O)N(Cc2ccc(C(F)(F)F)cn2)C(C)c2ncccn2)cn1 (stereo not drawn) [Compound 1]				2250 nM	1.7 nM	150 nM
CNC(N)=Nc1ccc(C(=O)N(Cc2ccc(C(F)(F)F)cn2)c2csc3cccnc23)cn1 [Compound 51]				618 nM	2.6 nM	51 nM
CNC(N)=Nc1ccc(C(=O)N(Cc2ccc(C(F)(F)F)cn2)C(C)c2ccccc2)cn1 (stereo not drawn) [Compound 32]				1890 nM	1.5 nM	114 nM
CNC(N)=Nc1ccc(C(=O)N(Cc2ccc(C(F)(F)F)cn2)C(C)c2ccccc2C)cn1 (stereo not drawn) [Compound 41]				3710 nM	2.5 nM	931 nM
CNC(N)=Nc1ccc(C(=O)N(Cc2ccc(C(F)(F)F)cn2)n2ccc3cccnc32)cn1 [Compound 56, 6-((amino(methylamino)methylene)amino)-N-(1H-pyrrolo[2,3-b]pyridin-1-yl)-N-[(5-(trifluoromethyl)pyridin-2-yl)methyl)nicotinamide]				536 nM	5.8 nM	36 nM
CNC(N)=Nc1ccc(C(=O)N(Cc2ccc(C)nc2)[C@H](C)c2ccccc2F)cn1 [Compound 109]				7720 nM	5.8 nM	658 nM
CNC(N)=Nc1ccc(C(=O)N(Cc2ccc(C(F)(F)F)cn2)C2CCCc3cccnc32)cn1 (stereo not drawn) [Compound 44]		493 nM	17 nM		2.6 nM	
CNC(N)=Nc1ccc(C(=O)N(Cc2ccc(C(F)(F)F)cn2)c2cccc3ccccc23)cn1 [Compound 47]				593 nM	1.4 nM	31 nM
CNC(N)=Nc1ccc(C(=O)N(Cc2ccc(C(F)(F)F)cn2)C(C)c2ccccc2OC(F)(F)F)cn1 (stereo not drawn) [Compound 60]				2950 nM	2.8 nM	933 nM
CNC(N)=Nc1ccc(C(=O)N(Cc2ccc(C(F)(F)F)cn2)[C@@H]2CCc3ccccc32)cn1 [Compound 83]				1710 nM	4 nM	195 nM
